Assay results from ChEMBL document CHEMBL4507263, “Data for DCP probe BAY-474” (2021).

Legend:
[1] = target: Casein kinase II subunit alpha' (Homo sapiens) (UniProt P19784); settings: Compound concentration 1000.0 nM
Rattus norvegicus [2] = species: Rattus norvegicus; settings: Compound concentration 10.0 uM
[3] = target: Serine/threonine-protein kinase Nek5 (Homo sapiens) (UniProt Q6P3R8); settings: Compound concentration 1000.0 nM
[4] = target: Serine/threonine-protein kinase 16 (Homo sapiens) (UniProt O75716); settings: Compound concentration 1000.0 nM
[5] = target: T1, GABA-A receptor; anion channel (Rattus norvegicus) (UniProt O09028+P15431+P18506+P18508+P19969+P20236+P23574+P23576+P28471+P28473+P30191+P62813+P63079+P63138+Q91ZM7+Q9ES14); settings: Compound concentration 10.0 uM
[6] = test system: Tyrosine-protein kinase ABL1 (Homo sapiens), P00519 [F317L]; settings: Compound concentration 1000.0 nM
[7] = test system: Tyrosine-protein kinase ABL1 (Homo sapiens), P00519 [H396P]; settings: Compound concentration 1000.0 nM
[8] = target: Phosphatidylinositol 4,5-bisphosphate 3-kinase catalytic subunit beta isoform (Homo sapiens) (UniProt P42338); settings: Compound concentration 1000.0 nM
[9] = test system: Proto-oncogene tyrosine-protein kinase receptor Ret (Homo sapiens), P07949 [M918T]; settings: Compound concentration 1000.0 nM
[10] = target: Serine/threonine-protein kinase 35 (Homo sapiens) (UniProt Q8TDR2); settings: Compound concentration 1000.0 nM
[11] = target: Uncharacterized serine/threonine-protein kinase SBK3 (Homo sapiens) (UniProt P0C264); settings: Compound concentration 1000.0 nM
[12] = target: Megakaryocyte-associated tyrosine-protein kinase (Homo sapiens) (UniProt P42679); settings: Compound concentration 1000.0 nM
[13] = target: Casein kinase I isoform gamma-1 (Homo sapiens) (UniProt Q9HCP0); settings: Compound concentration 1000.0 nM
[14] = target: Serine/threonine-protein kinase WNK4 (Homo sapiens) (UniProt Q96J92); settings: Compound concentration 1000.0 nM
[15] = target: Aurora kinase C (Homo sapiens) (UniProt Q9UQB9); settings: Compound concentration 1000.0 nM
[16] = target: Ribosomal protein S6 kinase alpha-1 (Homo sapiens) (UniProt Q15418); settings: Compound concentration 1000.0 nM
[17] = target: Interleukin-1 receptor-associated kinase 4 (Homo sapiens) (UniProt Q9NWZ3); settings: Compound concentration 1000.0 nM
[18] = target: Leukocyte tyrosine kinase receptor (Homo sapiens) (UniProt P29376); settings: Compound concentration 1000.0 nM
[19] = target: Mitogen-activated protein kinase kinase kinase 12 (Homo sapiens) (UniProt Q12852); settings: Compound concentration 1000.0 nM
[20] = target: Ribosomal protein S6 kinase alpha-2 (Homo sapiens) (UniProt Q15349); settings: Compound concentration 1000.0 nM
[21] = target: Serine/threonine-protein kinase PAK 1 (Homo sapiens) (UniProt Q13153); settings: Compound concentration 1000.0 nM
[22] = test system: Phosphatidylinositol 4,5-bisphosphate 3-kinase catalytic subunit alpha isoform (Homo sapiens), P42336 [I800L]; settings: Compound concentration 1000.0 nM
[23] = target: Dual specificity mitogen-activated protein kinase kinase 4 (Homo sapiens) (UniProt P45985); settings: Compound concentration 1000.0 nM
[24] = test system: Serine/threonine-protein kinase B-raf (Homo sapiens), P15056 [V600E]; settings: Compound concentration 1000.0 nM
Rattus norvegicus [25] = species: Rattus norvegicus; assay: Inhibition of Imidazoline I2, Central at 10 µM in the Eurofins-Panlabs radioligand binding assay (Eurofins_assay_241000); set-up: ligand concentration 2 nM; settings: Compound concentration 10.0 uM
[26] = target: Vascular endothelial growth factor receptor 2 (Homo sapiens) (UniProt P35968); assay: KDR (h) Millipore kinase activity assay; settings: Compound concentration 1.0 uM
[27] = target: Serine/threonine-protein kinase Nek2 (Homo sapiens) (UniProt P51955); assay: NEK2 (h) Millipore kinase activity assay; settings: Compound concentration 1.0 uM
[28] = target: Sigma non-opioid intracellular receptor 1 (Homo sapiens) (UniProt Q99720); assay: Inhibition of Sigma 1 at 10 µM in the Eurofins-Panlabs radioligand binding assay (Eurofins_assay_278110); set-up: ligand concentration 8 nM; settings: Compound concentration 10.0 uM
[29] = target: Tyrosine-protein kinase ZAP-70 (Homo sapiens) (UniProt P43403); assay: ZAP-70 (h) Millipore kinase activity assay; settings: Compound concentration 1.0 uM
[30] = target: Homeodomain-interacting protein kinase 1 (Homo sapiens) (UniProt Q86Z02); assay: HIPK1 (h) Millipore kinase activity assay; settings: Compound concentration 1.0 uM
[31] = target: voltage-gated sodium channel, site 2 (Rattus norvegicus, UniProt F1LQQ7+O08562+O88420+O88457+P04774+P04775+P08104+P15389+P15390+Q62968); assay: Inhibition of Sodium Channel, Site 2 at 10 µM in the Eurofins-Panlabs radioligand binding assay (Eurofins_assay_279510); type: protein assay; set-up: ligand concentration 5 nM, non-specific ligand with concentration 100 µM Veratridine, incubation time 60 min, incubation temperature 37 °C; settings: male, Wistar, rat whole brain (except cerebellum) membranes, probe [3H] Batrachotoxinin, compound concentration 10 uM
[32] = target: Insulin receptor-related protein (Homo sapiens) (UniProt P14616); assay: IRR (h) Millipore kinase activity assay; settings: Compound concentration 1.0 uM
[33] = target: Vascular endothelial growth factor receptor 3 (Homo sapiens) (UniProt P35916); assay: Flt4 (h) Millipore kinase activity assay; settings: Compound concentration 1.0 uM
[34] = target: Proto-oncogene tyrosine-protein kinase ROS (Homo sapiens) (UniProt P08922); assay: Ros (h) Millipore kinase activity assay; settings: Compound concentration 1.0 uM
[35] = target: T1, GABA-A receptor; anion channel (Rattus norvegicus); assay: Inhibition of GABAA, Muscimol, Central at 10 µM in the Eurofins-Panlabs radioligand binding assay (Eurofins_assay_226500); type: protein-complex assay; settings: Compound concentration 10.0 uM
Homo sapiens = species: Homo sapiens; assay: Inhibition of Nicotinic Acetylcholine at compound concentration of 10.0 uM in the Eurofins-Panlabs radioligand binding assay (Eurofins_assay_258590); type: protein-complex assay; settings: Compound concentration 10.0 uM
Rattus norvegicus [36] = species: Rattus norvegicus; settings: Compound concentration 10.0 uM; remark: listed apart in the source

Chain of Casein kinase I isoform gamma-1 (Homo sapiens) (Q9HCP0 whole entry, looked up, canonical isoform): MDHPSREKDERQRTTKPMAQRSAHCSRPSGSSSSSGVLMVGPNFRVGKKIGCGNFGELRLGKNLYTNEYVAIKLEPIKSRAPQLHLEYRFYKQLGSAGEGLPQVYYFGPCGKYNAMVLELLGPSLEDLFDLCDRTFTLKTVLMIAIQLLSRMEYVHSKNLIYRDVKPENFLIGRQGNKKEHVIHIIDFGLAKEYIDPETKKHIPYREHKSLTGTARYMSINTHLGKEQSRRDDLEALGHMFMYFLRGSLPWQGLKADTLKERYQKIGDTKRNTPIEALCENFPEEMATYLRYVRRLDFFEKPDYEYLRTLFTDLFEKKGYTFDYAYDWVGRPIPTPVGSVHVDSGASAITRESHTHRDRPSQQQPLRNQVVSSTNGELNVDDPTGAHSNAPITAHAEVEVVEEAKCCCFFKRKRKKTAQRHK
Chain of Serine/threonine-protein kinase B-raf (Homo sapiens), P15056 [V600E] (P15056 whole entry V600E): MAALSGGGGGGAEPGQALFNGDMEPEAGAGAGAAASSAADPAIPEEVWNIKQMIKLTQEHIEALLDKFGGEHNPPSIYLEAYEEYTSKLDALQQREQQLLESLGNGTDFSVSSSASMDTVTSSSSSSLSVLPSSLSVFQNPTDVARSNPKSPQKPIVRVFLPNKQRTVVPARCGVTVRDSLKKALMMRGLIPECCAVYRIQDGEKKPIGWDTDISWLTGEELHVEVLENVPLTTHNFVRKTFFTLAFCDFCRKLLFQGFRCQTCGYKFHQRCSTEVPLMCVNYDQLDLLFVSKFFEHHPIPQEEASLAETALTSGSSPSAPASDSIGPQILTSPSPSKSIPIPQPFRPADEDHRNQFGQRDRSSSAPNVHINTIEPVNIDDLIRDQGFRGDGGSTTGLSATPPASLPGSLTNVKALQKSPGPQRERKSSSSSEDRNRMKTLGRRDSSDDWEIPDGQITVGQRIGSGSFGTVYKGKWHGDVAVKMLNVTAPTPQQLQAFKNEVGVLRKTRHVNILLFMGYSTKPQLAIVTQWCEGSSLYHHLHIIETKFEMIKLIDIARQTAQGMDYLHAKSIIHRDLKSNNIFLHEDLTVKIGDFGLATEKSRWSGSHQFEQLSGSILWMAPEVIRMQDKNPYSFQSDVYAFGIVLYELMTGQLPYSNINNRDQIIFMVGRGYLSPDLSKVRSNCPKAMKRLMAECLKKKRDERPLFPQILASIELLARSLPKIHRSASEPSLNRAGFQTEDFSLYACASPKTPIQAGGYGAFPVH
Chain of Vascular endothelial growth factor receptor 3 (Homo sapiens) (P35916 whole entry): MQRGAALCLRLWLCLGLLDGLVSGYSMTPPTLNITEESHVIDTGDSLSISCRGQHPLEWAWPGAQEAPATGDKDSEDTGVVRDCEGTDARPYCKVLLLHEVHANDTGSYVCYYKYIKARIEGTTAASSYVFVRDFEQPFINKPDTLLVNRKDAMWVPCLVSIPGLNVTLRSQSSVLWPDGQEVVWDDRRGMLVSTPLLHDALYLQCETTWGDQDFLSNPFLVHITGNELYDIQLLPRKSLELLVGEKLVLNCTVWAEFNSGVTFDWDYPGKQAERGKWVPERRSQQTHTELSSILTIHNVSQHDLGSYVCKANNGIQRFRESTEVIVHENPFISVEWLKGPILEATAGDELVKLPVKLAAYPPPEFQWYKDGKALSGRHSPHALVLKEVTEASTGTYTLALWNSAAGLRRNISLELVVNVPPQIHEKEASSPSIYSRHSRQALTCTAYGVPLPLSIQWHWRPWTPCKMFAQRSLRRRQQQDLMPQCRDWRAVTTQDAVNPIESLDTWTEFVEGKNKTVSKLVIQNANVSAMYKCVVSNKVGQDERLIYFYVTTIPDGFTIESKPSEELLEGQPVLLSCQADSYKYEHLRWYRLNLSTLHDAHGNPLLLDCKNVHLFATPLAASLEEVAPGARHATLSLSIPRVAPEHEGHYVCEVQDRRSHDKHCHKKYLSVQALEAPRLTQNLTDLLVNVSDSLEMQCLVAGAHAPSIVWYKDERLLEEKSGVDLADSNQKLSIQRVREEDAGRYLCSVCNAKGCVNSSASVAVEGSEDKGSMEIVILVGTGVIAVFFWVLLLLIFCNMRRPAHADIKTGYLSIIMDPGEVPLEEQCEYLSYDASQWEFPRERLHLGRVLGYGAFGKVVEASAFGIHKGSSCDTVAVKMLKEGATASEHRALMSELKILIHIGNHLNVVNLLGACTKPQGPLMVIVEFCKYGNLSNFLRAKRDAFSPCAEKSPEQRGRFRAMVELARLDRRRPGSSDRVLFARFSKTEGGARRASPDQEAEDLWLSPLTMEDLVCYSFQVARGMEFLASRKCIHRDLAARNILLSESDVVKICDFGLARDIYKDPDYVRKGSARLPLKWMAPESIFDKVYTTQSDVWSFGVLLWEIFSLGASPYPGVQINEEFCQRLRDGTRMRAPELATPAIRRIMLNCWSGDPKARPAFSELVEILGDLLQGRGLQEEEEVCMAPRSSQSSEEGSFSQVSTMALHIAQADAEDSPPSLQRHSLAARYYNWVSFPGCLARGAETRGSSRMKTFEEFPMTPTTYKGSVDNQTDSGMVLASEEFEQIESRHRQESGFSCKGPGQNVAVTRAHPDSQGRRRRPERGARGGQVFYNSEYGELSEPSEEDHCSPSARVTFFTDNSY
Chain of Homeodomain-interacting protein kinase 1 (Homo sapiens) (Q86Z02 whole entry, looked up): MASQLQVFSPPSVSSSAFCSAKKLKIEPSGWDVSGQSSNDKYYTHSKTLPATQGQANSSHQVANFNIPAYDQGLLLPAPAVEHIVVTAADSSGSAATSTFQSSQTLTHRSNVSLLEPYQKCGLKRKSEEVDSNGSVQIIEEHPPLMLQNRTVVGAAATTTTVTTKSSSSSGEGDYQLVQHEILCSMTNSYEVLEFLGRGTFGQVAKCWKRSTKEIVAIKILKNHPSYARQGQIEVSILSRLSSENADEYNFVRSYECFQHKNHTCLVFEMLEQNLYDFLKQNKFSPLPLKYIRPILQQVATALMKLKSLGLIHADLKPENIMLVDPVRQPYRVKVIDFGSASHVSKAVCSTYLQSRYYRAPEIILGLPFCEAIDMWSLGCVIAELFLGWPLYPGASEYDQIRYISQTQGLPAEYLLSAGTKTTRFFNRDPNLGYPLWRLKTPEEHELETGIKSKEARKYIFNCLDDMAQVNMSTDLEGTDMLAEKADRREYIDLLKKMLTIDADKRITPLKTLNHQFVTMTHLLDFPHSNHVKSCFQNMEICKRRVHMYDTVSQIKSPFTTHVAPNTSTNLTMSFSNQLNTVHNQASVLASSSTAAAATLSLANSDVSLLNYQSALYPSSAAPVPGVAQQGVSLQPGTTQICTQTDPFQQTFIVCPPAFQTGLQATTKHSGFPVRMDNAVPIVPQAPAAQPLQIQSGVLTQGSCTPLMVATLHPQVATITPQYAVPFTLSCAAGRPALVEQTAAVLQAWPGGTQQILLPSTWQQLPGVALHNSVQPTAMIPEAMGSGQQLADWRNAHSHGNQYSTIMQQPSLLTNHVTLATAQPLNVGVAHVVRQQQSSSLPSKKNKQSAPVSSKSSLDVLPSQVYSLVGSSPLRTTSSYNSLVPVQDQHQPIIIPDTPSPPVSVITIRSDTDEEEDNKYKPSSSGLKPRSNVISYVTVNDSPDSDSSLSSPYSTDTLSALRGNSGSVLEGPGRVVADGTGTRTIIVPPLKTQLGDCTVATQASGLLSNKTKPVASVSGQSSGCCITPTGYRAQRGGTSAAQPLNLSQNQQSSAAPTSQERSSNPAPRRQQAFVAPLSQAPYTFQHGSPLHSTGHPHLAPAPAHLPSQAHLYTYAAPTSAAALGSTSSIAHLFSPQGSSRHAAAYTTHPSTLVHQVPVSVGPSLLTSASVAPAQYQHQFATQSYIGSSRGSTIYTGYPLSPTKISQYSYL
Chain of Serine/threonine-protein kinase Nek2 (Homo sapiens) (P51955 whole entry): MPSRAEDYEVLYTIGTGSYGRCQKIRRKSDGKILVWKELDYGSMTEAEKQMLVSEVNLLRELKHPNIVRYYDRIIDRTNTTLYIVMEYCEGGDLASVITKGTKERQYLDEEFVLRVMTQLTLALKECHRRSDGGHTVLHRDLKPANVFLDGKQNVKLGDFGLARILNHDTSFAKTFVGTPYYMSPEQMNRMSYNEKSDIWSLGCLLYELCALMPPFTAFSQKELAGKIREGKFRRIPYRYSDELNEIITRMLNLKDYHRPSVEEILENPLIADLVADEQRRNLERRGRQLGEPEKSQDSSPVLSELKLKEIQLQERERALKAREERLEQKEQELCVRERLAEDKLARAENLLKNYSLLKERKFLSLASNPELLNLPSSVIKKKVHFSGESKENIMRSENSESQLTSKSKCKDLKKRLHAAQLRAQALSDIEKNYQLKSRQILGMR
Chain of Leukocyte tyrosine kinase receptor (Homo sapiens) (P29376 whole entry): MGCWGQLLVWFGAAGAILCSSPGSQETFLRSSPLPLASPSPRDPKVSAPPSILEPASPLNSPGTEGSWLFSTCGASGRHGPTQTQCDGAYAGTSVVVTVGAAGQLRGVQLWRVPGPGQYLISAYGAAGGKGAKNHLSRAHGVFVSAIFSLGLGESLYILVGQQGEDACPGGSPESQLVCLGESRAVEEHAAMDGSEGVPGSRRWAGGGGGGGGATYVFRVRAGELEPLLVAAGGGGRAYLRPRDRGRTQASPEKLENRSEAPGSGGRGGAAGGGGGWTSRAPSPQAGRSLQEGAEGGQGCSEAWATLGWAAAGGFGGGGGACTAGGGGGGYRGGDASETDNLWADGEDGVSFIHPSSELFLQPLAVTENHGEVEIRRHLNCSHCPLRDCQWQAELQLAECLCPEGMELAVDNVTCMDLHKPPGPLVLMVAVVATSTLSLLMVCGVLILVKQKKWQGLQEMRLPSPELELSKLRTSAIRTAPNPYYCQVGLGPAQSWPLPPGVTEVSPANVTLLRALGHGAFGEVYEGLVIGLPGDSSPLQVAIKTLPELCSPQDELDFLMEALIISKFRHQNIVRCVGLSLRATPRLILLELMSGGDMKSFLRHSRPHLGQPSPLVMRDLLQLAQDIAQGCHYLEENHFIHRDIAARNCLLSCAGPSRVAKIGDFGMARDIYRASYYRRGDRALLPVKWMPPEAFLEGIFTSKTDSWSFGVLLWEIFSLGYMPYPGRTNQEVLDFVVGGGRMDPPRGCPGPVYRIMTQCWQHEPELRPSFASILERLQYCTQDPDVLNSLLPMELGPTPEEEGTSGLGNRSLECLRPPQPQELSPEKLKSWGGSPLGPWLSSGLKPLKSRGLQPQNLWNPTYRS

CC1=C(C#N)[C@@H](c2ccc3[nH]nc(C)c3c2)C(C#N)=C(c2ccc(Cl)cc2)N1 [BAY-827]
residual activity [1]: 100% | inhibition (Rattus norvegicus [2]): 69.5% | residual activity [3]: 80.3% | residual activity [4]: 100% | inhibition [5]: 16.9% | residual activity [6]: 94.2% | residual activity [7]: 100% | residual activity [8]: 100% | residual activity [9]: 97.2% | residual activity [10]: 100% | residual activity [11]: 100% | residual activity [12]: 100% | residual activity [13]: 100% | residual activity [14]: 100% | residual activity [15]: 100% | residual activity [16]: 100% | residual activity [17]: 100% | residual activity [18]: 100% | residual activity [19]: 72.2% | residual activity [20]: 85.4% | residual activity [21]: 100% | residual activity [22]: 100% | residual activity [23]: 71.5% | residual activity [24]: 100%

CC1=C(C#N)C(c2ccc3[nH]nc(C)c3c2)C(C#N)=C(C)N1 [BAY-474]
inhibition (Rattus norvegicus [25]): 5% | inhibition [26]: 4% | inhibition [27]: -5% | inhibition [28]: -7% | inhibition [29]: 12% | inhibition [30]: -5% | inhibition at 60 min, 10 µM [31]: -1% (not active) | inhibition [32]: 2% | inhibition [33]: 26% | inhibition [34]: 25% | inhibition [35]: 10% | inhibition (Homo sapiens): -1% | inhibition (Rattus norvegicus [36]): 1%
